From US10780090B2, “Heteroaryl compounds useful as inhibitors of SUMO activating enzyme” (Millennium Pharmaceuticals, Inc., priority 2014, dated 2020) come the findings set out here.

The test has as its target recombinant human SAE enzyme (Homo sapiens (Human), UniProt Q9UBT2). Kind of test: SAE HTRF enzyme assay. The test is classed as biochemical. In short, it runs like this:
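Human SAE (0.11 nM) with 0.5 μM ATP, 0.125 μM Sumo-Flag and 0.01 μM Ubc9-GST in HEPES pH 7.5, 5 mM MgCl2, 250 μM GSH; 105 min at 24 °C. Stopped with EDTA; HTRF read after 2 h with Eu-anti-Flag and APC-anti-GST. Percent inhibition or IC50 reported.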

The mark [1] stands for this setting: SAE inhibition at compound concentration 0.111 μM.
The mark [2] stands for this setting: SAE inhibition, class symbols, legend in nM.

recombinant human SAE enzyme, sequence (Q9UBT2 whole entry): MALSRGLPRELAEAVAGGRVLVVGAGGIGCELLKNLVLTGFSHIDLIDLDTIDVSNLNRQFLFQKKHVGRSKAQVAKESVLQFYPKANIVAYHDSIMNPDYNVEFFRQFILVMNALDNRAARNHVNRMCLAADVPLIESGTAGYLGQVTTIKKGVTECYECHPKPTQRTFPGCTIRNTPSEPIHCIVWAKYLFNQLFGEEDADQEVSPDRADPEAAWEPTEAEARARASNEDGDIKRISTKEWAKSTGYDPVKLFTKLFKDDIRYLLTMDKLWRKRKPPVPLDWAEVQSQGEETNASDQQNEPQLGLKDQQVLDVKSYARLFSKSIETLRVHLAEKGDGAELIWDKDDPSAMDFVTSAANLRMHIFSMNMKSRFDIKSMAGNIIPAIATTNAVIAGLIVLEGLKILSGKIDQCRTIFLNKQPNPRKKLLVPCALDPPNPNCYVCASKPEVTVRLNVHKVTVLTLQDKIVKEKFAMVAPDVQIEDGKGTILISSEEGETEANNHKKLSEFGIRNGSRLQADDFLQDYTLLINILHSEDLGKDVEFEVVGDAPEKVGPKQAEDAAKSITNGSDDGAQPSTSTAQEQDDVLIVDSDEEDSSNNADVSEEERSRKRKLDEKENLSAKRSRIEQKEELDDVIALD
recombinant human SAE enzyme, sequence (Q9UBE0 whole entry partner): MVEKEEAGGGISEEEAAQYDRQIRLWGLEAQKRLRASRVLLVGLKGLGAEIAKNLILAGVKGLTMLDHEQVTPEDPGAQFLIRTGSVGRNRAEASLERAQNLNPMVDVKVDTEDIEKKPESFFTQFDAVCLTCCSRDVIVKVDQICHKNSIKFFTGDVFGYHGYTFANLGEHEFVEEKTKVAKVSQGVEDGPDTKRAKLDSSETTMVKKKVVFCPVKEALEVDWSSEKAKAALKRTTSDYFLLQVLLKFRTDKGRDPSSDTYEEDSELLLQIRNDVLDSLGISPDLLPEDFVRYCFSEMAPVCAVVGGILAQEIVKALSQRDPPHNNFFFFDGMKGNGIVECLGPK

Regarding `Cc1sc(C(=O)c2cncnc2N[C@@H]2C[C@H](COS(N)(=O)=O)[C@@H](O)C2)cc1[C@H]1OCCc2ccc(N3CCCC3)nc21` (mixture of isomers) [I-348, [(1R,2S,4R)-2-hydroxy-4-{[5-({5-methyl-4-[(8R)-2-(pyrrolidin-1-yl)-5,8-dihydro-6H-pyrano[3,4-b]pyridin-8-yl]-2-thienyl}carbonyl)pyrimidin-4-yl]amino}cyclopentyl]methyl sulfamate and [(1R,2S,4R)-2-hydroxy-4-{[5-({5-methyl-4-[(8S)-2-(pyrrolidin-1-yl)-5,8-dihydro-6H-pyrano[3,4-b]pyridin-8-yl]-2-thienyl}carbonyl)pyrimidin-4-yl]amino}cyclopentyl]methyl sulfamate], the “Percent Inhibition” value under setting [1] turned out to be 97%. The IC50 (commonly the midpoint of a concentration-inhibition curve) under setting [2] was under 10 nM.
As for `NS(=O)(=O)OC[C@H]1C[C@@H](Nc2ncncc2C(=O)c2cc([C@@H]3CCc4ccc(Cl)cc43)cs2)C[C@@H]1O` (mixture of isomers) [I-349, [(1R,2S,4R)-4-{[5-({4-[(1R)-6-chloro-2,3-dihydro-1H-inden-1-yl]-2-thienyl}carbonyl)pyrimidin-4-yl]amino}-2-hydroxycyclopentyl]methyl sulfamate and [(1R,2S,4R)-4-{[5-({4-[(1S)-6-chloro-2,3-dihydro-1H-inden-1-yl]-2-thienyl}carbonyl)pyrimidin-4-yl]amino}-2-hydroxycyclopentyl]methyl sulfamate], the “Percent Inhibition” value under setting [1] is 42%. Further, the IC50 under setting [2] fell in the range of 100 to 1000 nM.
In the case of `Cc1nc2n(c1C)CCO[C@@H]2c1cc(C(=O)c2cncnc2N[C@@H]2C[C@H](COS(N)(=O)=O)[C@@H](O)C2)sc1C` (mixture of isomers) [I-356, ((1R,2S,4R)-4-{(5-(4-((R)-2,3-dimethyl-6,8-dihydro-5H-imidazo[2,1-c][1,4c]oxazin-8-yl)-5-methylthiophene-2-carbonyl)pyrimidin-4-yl)amino)-2-hydroxycyclopentyl)methyl sulfamate and ((1R,2S,4R)-4-((5-4-((S)-2,3-dimethyl-6,8-dihydro-5H-imidazo[2,1-c][1,4]oxazin-8-yl)-5-methylthiophene-2-carbonyl)pyrimidin-4-yl)amino)-2-hydroxycyclopentyl)methyl sulfamate], the “Percent Inhibition” value under setting [1] stood at 97%. Besides, under setting [2], the half-inhibitory concentration (IC50) is under 10 nM.
With `Cc1sc(C(=O)c2cncnc2N[C@@H]2C[C@H](COS(N)(=O)=O)[C@@H](O)C2)cc1[C@@H]1SCc2ccc(Cl)cc21` (mixture of isomers) [I-359a, [(1RS,2SR,4RS)-4-[[5-[4-[(R)-6-chloro-1,3-dihydro-2-benzothiophene-1-yl]-5-methyl-thiophene-2-carbonyl]pyrimidin-4-yl]amino]-2-hydroxy-cyclopentyl]methyl sulfamate], the inhibition – broadly, the drop in the measured response relative to a control, in per cent – at 0.111 µM (SAE inhibition at compound concentration 0.111 μM, read-out: Percent Inhibition) is 92%. Further, the concentration for half-maximal inhibition (IC50) under setting [2] lay in the range of 10 to 100 nM.
With `Cc1sc(C(=O)c2cncnc2N[C@@H]2C[C@H](COS(N)(=O)=O)[C@@H](O)C2)cc1[C@H]1SCc2ccc(Cl)cc21` (racemic) [I-359b, [(1RS,2SR,4RS)-4-[5-[4-[(1S)-6-chloro-1,3-dihydro-2-benzothiophene-1-yl]-5-methyl-thiophene-2-carbonyl]pyrimidin-4-yl]amino]-2-hydroxy-cyclopentyl]methyl sulfamate], under setting [1], the “Percent Inhibition” value came to 95%. Further, the 50% inhibitory concentration (IC50) under setting [2] is under 10 nM.
As to `C[C@](O)(c1csc(C(=O)c2cncnc2N[C@@H]2C[C@H](COS(N)(=O)=O)[C@@H](O)[C@H]2O)c1)c1cccc(Br)n1` (single isomer, unassigned) [I-1a, [(1R,2R,3S,4R)-4-{[5-({4-[(1S)-1-(6-bromopyridin-2-yl)-1-hydroxyethyl]-2-thienyl}carbonyl)pyrimidin-4-yl]amino}-2,3-dihydroxycyclopentyl]methyl sulfamate or [(1R,2R,3S,4R)-4-{[5-({4-[(1R)-1-(6-bromopyridin-2-yl)-1-hydroxyethyl]-2-thienyl}carbonyl)pyrimidin-4-yl]amino}-2,3-dihydroxycyclopentyl]methyl sulfamate], the “Percent Inhibition” value (Concentration 0.111 μM) turned out to be 96. Moreover, the IC50 (class symbols A/B/C) is under 10 nM.
